Laboratory results reported in publication PMC6831611, “Proof-of-Concept Study of Drug Brain Permeability Between in Vivo Human Brain and an in Vitro iPSCs-Human Blood-Brain Barrier Model” (Scientific Reports, 2019).
“Also recorded” adds a separate entry of the source. Where two headings read alike, the source gives them in different places.

Experiments:
human brain (BBB) = conditions: PET, cited from earlier work; for K1, rate constant for transfer from arterial plasma into brain: human brain; for cerebral uptake / brain distribution in human brain (in words): in vivo, ref S1 Table 1
iPSC-hBBB monolayer = experiment: Apparent permeability (Papp A to B) across the in vitro iPSC-hBBB model; conditions: iPSC-hBBB model, PappAB
Experimental: (§1) On day before the co-culture establishment, rat glial cells (2 × 10^4 cells) isolated as described previously[6] were plated on 12 wells plate (Costar) in glial specific medium. After 24 hours, hiPSC-BECs (6 × 10^4cells) were plated on the upper side of a collagen-coated polyester Transwell membrane (Costar, pore size 0.4 µm; diameter 12 mm; insert growth area 1 cm^2) in 0.5 mL of endothelial medium.
(§2) Experiments were performed in triplicate for each compound.
(§3) For LC-MS/MS a sample aliquot (transfer buffer) was diluted by half with acetonitrile and then, 10 μL of this solution was injected into the analytical equipment made up a Liquid Chromatography system coupled to a triple quadrupole mass spectrometer Thermofisher TS Quantum Discovery or Waters Quattro Premier XE equipped with a electrospray ionization source. System control and data processing were carried out using Xcalibur or Masslynx software. The chromatographic separation was performed on a Waters ACQUITY UPLC BEH C18 column (2.1 mm × 50 mm, 1.7 μm) at 60 °C. A gradient of two solvent mixtures was delivered at 0.3 mL/min or 0.5 mL/min according to the analytical system. Solvent A comprised 0.1% formic acid in ammonium acetate (5 mM) and solvent B, 0.1% formic acid in acetonitrile. Molecules were ionized in positive mode. Multiple reaction monitoring mode was used for compounds quantification. For all tested compounds, a linear gradient of mobile phase A and B was optimized. Linearity of the response was verified in the range 0.05 to 5 µM through 3 experiments to be able to measure low passage. Quantification was carried out using standard calibration curve and quality control samples prepared with blank matrix (transfer buffer/acetonitrile; 1/1; v/v) spiked with compounds.

[1] = system: ABC transporters (P-gp) in the iPSC-hBBB model
Experimental: (§4) A known P-gp substrate was used to assess the asymmetry index of the iPSC- hBBB model.
(§5) The integrity of iPSC-derived human BBB model was determined by assessment of radiolabelled sucrose permeability as a paracellular marker. The transwells with hiPSC-BECs monolayers were transferred to new 12 well plates. […] After 1 hour of incubation at 37 °C with gentle rotation, 100 µL of transfer buffer from both A and B compartments were collected and counted by scintillation. The Papp value was calculated as followed: Papp=dQ/dTXAXC0 where dQ/dT is the amount of compound transported per time point; A is the membrane surface area of the insert; and Co is the donor concentration at the time point. Data were presented as the average ± SD from three monolayers. […] The propranolol permeability was also tested using the same protocol with an apical tested dose about 1 µCi/mL (48 nM) of [^3H]propranolol in transfer buffer. […] After checking the cell monolayer integrity, the monolayers were transferred to new plates. The buffer (150 mM NaCl, 5.2 mM KCl, 2.2 mM CaCl2, 0.2 mM MgCl2, 6 mM NaHCO3, 2.8 mM glucose and 5 mM Hepes) was added: 1.5 mL to the basal chamber (B) and 0.5 mL to the apical chamber (A). Experiments were performed in triplicate for each compound. […] After 60 min, aliquots were removed from the acceptor and basal chambers for drug-concentration determination by LC-MS/MS.

[2] = system: ABC transporters in the in vitro primary rat cell based BBB model
ABC transporters = experiment: in vitro; conditions: rat
ABC transporters (P-gp) = experiment: in vitro; conditions: human, PappBA/PappAB efflux ratio (ER)
Experimental: as §4, §5

[3] = system: in vitro primary cell-based rat BBB model; experiment: Apparent permeability in the in vitro primary cell-based rat BBB model; conditions: in vitro cell based rat BBB model vs iPSC-hBBB model
Description: We previously described an in vitro primary cell-based rat BBB model with relevant features of the in vivo rat BBB[6]. We therefore analyzed correlatively the permeability of a set of compounds obtained using the in vitro iPSC-hBBB model and the in vitro cell based rat BBB model.

[4] = Apparent permeability (Papp A to B) across the in vitro iPSC-hBBB model; conditions: human
Experimental: as §1, §2, §3

| SMILES | in vitro permeability across the iPSC-hBBB model (in words) (iPSC-hBBB monolayer) | ABC transporter substrate / interaction (in words) [1] | K1, rate constant for transfer from arterial plasma into brain (human brain (BBB)) [mL.cm-3.min-1] | permeability in the rat BBB model compared with the iPSC-hBBB model (in words) [3] | also measured |
| --- | --- | --- | --- | --- | --- |
| COC[C@H]1CN(c2ccc(OCC[C@@H](O)C(F)(F)F)cc2)C(=O)O1 [befloxatone] | high permeability | – | – | – | K1, rate constant for transfer from arterial plasma into brain (human brain (BBB); ref unpublished data): 0.20 mL.cm-3.min-1; cerebral uptake / brain distribution in human brain (in words) (human brain (BBB)): high cerebral uptake |
| C#Cc1cccc(Nc2ncnc3cc(OCCOC)c(OCCOC)cc23)c1 [erlotinib] | high permeability | not in the in vitro iPSC-hBBB model | 0.02 | – | ABC transporter substrate / interaction (in words) [2]: apparently an ABC transporter substrate; cerebral uptake / brain distribution in human brain (in words) (human brain (BBB)): low cerebral uptake |
| CC[C@]1(O)C[C@@H]2CN(CCc3c([nH]c4ccccc34)[C@@](C(=O)OC)(c3cc4c(cc3OC)N(C)[C@H]3[C@@](O)(C(=O)OC)[C@H](OC(C)=O)[C@]5(CC)C=CCN6CC[C@]43[C@@H]65)C2)C1 [vinblastine] | – | likely to be also ABC transporter substrates | – | – | efflux ratio (ABC transporters): ≥ 1.25; efflux ratio at 60 min (ABC transporters (P-gp)): 1.55 ± 0.4 |
| CN(C)C(=O)C(CCN1CCC(O)(c2ccc(Cl)cc2)CC1)(c1ccccc1)c1ccccc1 [loperamide] | low apparent permeability | likely to be also ABC transporter substrates; also recorded: apparently interacted with ABC transporters | 0.002 | higher | – |
| Cn1c(=O)c2c(ncn2C)n(C)c1=O [caffeine] | – | – | – | higher | – |
| CCN1CCC[C@H]1CNC(=O)c1c(O)c(Cl)cc(Cl)c1OC [raclopride] | – | – | 0.09 | – | – |
| COc1ccc2c(c1)[C@]13CCCC[C@@H]1[C@H](C2)N(C)CC3 [dextromethorphan] | – | – | – | higher | – |
| CC(C)NCC(O)COc1cccc2ccccc12 (stereo not shown) [propranolol] | – | – | – | – | Papp A→B at 1 h [4]: 217 ± 31 nm/s |
